According to patent US4341784A, “Naphthyridine derivatives” (priority 1979, dated 1982):

Assays:
[1] = tested on: Pseudomonas aeruginosa No. 12; experiment: In vivo efficacy against systemic infections in mice (intraperitoneal infection); parameters: species or system male mice (ddY); conditions: NO.12, 168 h, po, twice, about 5 minutes and 6 hours after intraperitoneal infection, observed 7 days
Description: (§1) Each of the solutions was orally administered to mice infected with each of test organisms under the conditions described below, and the medium effective doses (ED50) obtained are shown in Table II. Male mice (ddY) weighing about 20 g (4) Pseudomonas aeruginosa No. 12: Intraperitoneal infection with about 5×10^3 cells per mouse suspended in trypto-soy broth with 4% mucin. Twice, about 5 minutes and 6 hours after infection. |Escherichia coli P-5101 for 7 days |Pseudomonas aeruginosa No. 12 | The numerals in the table show ED50 (mg/kg). ED50 values were | calculated in accordance with the BehrensKaerber method (Arch. Exp. Path. | Pharm., 162, 480 (1931)). | po: oral administration.

[2] = tested on: Staphylococcus aureus No. 50774; experiment: In vivo efficacy against systemic infections in mice (intravenous infection); parameters: species or system male mice (ddY); conditions: NO.50774, 336 h, po, twice, about 5 minutes and 6 hours after intravenous infection, observed 14 days
Description: Each of the solutions was orally administered to mice infected with each of test organisms under the conditions described below, and the medium effective doses (ED50) obtained are shown in Table II. Male mice (ddY) weighing about 20 g (1) Staphylococcus aureus No. 50774: Intravenous infection with about 5×10^8 cells per mouse suspended in saline. Twice, about 5 minutes and 6 hours after infection. |Staphylococcus aureus No. 50774 | for 14 days | The numerals in the table show ED50 (mg/kg). ED50 values were | calculated in accordance with the BehrensKaerber method (Arch. Exp. Path. | Pharm., 162, 480 (1931)). | po: oral administration.

[3] = tested on: Streptococcus pyogenes 65-A; experiment: In vivo efficacy against systemic infections in mice (intraperitoneal infection); parameters: species or system male mice (ddY); conditions: 168 h, po, twice, about 5 minutes and 6 hours after intraperitoneal infection, observed 7 days
Description: as §1, with “(2) Streptococcus pyogenes 65-A:” for “(4) Pseudomonas aeruginosa No. 12:”, “3×10^7” for “5×10^3”, “barin heart infusion broth.” for “trypto-soy broth with 4% mucin.”, “infection. |Streptococcus pyogenes 65-A” for “infection.”, “days” for “days |Pseudomonas aeruginosa No. 12”

[4] = Acute toxicity in intravenous injection

| SMILES | ED50 [1] [mg/kg] | ED50 [2] [mg/kg] | ED50 [3] [mg/kg] | acute toxicity in intravenous injection compared with Compound 1 (in words) [4] |
| --- | --- | --- | --- | --- |
| CCn1cc(C(=O)O)c(=O)c2cc(F)c(N3CCC(N)C3)nc21.Cl (stereo not shown) [Compound 1, 7-(3-Amino-1-pyrrolidinyl)-1-ethyl-6-fluoro-1,4-dihydro-4-oxo-1,8-naphthyridine-3-carboxylic acid hydrochloride] | 3.7 | 3 | 21 | – |
| CCn1cc(C(=O)O)c(=O)c2cc(F)c(N3CCC(NC)C3)nc21.Cl (stereo not shown) [Compound 2, 1-Ethyl-6-fluoro-1,4-dihydro-7-(3-methylamino-1-pyrrolidinyl)-4-oxo-1,8-naphthyridine-3-carboxylic acid hydrochloride] | 6.5 | 4.8 | 42 | lower acute toxicity in intervenous injection than Compound 1 |
